Reference: patent publication US7378375B1, “Substituted pyridine herbicides” (Syngenta Crop Protection, Inc., priority 2000, dated 2008)

Tests used:
[1] = system: Monocotyledonous and dicotyledonous test plants; test: Post-emergence herbicidal action, greenhouse pot test, sprayed at the 2- to 3-leaf stage, 9-level rating after 2 to 3 weeks; format: in vivo; conditions: 250 g/ha, rated after 2 to 3 weeks, 9-level scale
How it was run: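 Plants grown in standard soil in pots; test substances sprayed at the 2- to 3-leaf stage at optimum dosage (500 l water/ha) as aqueous suspension or emulsion from formulated concentrates. Plants then kept in the greenhouse under optimum conditions; rated after 2 to 3 weeks on a 9-level scale (1=complete damage, 9=no effect).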

[2] = system: Monocotyledonous and dicotyledonous test plants; test: Herbicidal action before emergence of the plants (pre-emergence action), greenhouse pot test, 9-level rating after 4 weeks; format: in vivo; conditions: 250 g/ha, rated after 4 weeks, 9-level scale
How it was run: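 Compounds applied pre-emergence as a spray (500 l water/ha) of aqueous suspension or emulsion onto soil immediately after sowing mono- and dicot species in pots. Greenhouse-grown; damage rated after 4 weeks on a 9-level scale (1=complete damage, 9=no effect).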

| SMILES | Post-emergence action rating, Abutilon [1] | Post-emergence action rating, Amaranth [1] | Post-emergence action rating, Chenop. [1] | Post-emergence action rating, Digitaria [1] | Post-emergence action rating, Echino. [1] | Post-emergence action rating, Ipopur. [1] | Post-emergence action rating, Panicum [1] | Post-emergence action rating, Xanth. [1] | Pre-emergence action rating, Abutilon [2] | Pre-emergence action rating, Amaranthus [2] | Pre-emergence action rating, Chenop. [2] | Pre-emergence action rating, Digitaria [2] | Pre-emergence action rating, Echino. [2] | Pre-emergence action rating, Panicum [2] |
| --- | --- | --- | --- | --- | --- | --- | --- | --- | --- | --- | --- | --- | --- | --- |
| COCCOCc1c(C(=O)C2=C(O)C3CCC(C3)C2=O)ccc(C(F)(F)F)[n+]1[O-] (centres unmarked) [A736-B52] | 1 | 1 | 1 | 1 | 2 | 2 | 1 | 2 | 1 | 1 | 1 | 4 | 2 | 1 |
| CS(=O)(=O)CCOCc1nc(C(F)(F)F)ccc1C(=O)C1=C(O)C2CCC(C2)C1=O (centres unmarked) [A819-B52] | 2 | 2 | 1 | 3 | 2 | 2 | 2 | 2 | 1 | 2 | 1 | 9 | 7 | 7 |
| COc1cc(OC)nc(SCc2nc(C(F)(F)F)ccc2C(=O)C2=C(O)C3CCC(C3)C2=O)n1 (centres unmarked) [A830-B52] | 5 | 4 | 4 | 9 | 3 | 5 | 4 | 4 | 5 | 4 | 4 | 9 | 3 | 4 |
| CC(=O)OCc1nc(C(F)(F)F)ccc1C(=O)C1=C([O-])C2CCC(C2)C1=O.[K+] (centres unmarked) [A833-B52 (K+)] | 3 | 3 | 3 | 3 | 4 | 3 | 3 | 2 | 1 | 2 | 1 | 2 | 2 | 1 |
| CC(=O)OCc1nc(C(F)(F)F)ccc1C(=O)C1=C(O)C2CCC(C2)C1=O (centres unmarked) [A833-B52, (H4), 3-(2-Hydroxy-4-oxobicyclo[3.2.1]oct-2-en-3-carbonyl)-6-trifluoromethylpyridin-2-yl methyl acetate] | 3 | 2 | 3 | 3 | 4 | 2 | 3 | 1 | 1 | 1 | 1 | 1 | 1 | 1 |
| O=C(C1=C(O)C2CCC(C2)C1=O)c1ccc(C(F)(F)F)nc1COCC(F)(F)F (centres unmarked) [A834-B52] | 2 | 1 | 1 | 1 | 2 | 2 | 1 | 2 | 1 | 2 | 1 | 1 | 1 | 1 |
| COCCOCCOCc1nc(C(F)(F)F)ccc1C(=O)C1=C(O)C2CCC(C2)C1=O (centres unmarked) [A835-B52] | 2 | 2 | 1 | 1 | 2 | 2 | 1 | 3 | 2 | 1 | 2 | 2 | 1 | 1 |
| C#CCCOCc1nc(C(F)(F)F)ccc1C(=O)C1=C(O)C2CCC(C2)C1=O (centres unmarked) [A836-B52] | 2 | 2 | 1 | 2 | 2 | 3 | 2 | 3 | 5 | 2 | 3 | 2 | 1 | 1 |
| CCN(CC)CC.O=C(C1=C(O)C2CCC(C2)C1=O)c1ccc(C(F)(F)F)nc1COC1CCCO1 (centres unmarked) [A837-B52 (Et3NH+)] | 2 | 2 | 1 | 2 | 2 | 2 | 2 | 2 | 1 | 1 | 1 | 1 | 2 | 1 |
| CCC(OC)OCCOCc1nc(C(F)(F)F)ccc1C(=O)C1=C(O)C2CCC(C2)C1=O (centres unmarked) [A838-B52] | 1 | 2 | 1 | 2 | 3 | 2 | 2 | 2 | 1 | 1 | 1 | 3 | 2 | 1 |
| CC(C)(C)C(=O)OCc1nc(C(F)(F)F)ccc1C(=O)C1=C(O)C2CCC(C2)C1=O (centres unmarked) [A839-B52] | 2 | 2 | 1 | 2 | 2 | 2 | 2 | 2 | 1 | 1 | 1 | 3 | 2 | 1 |
| C=CCOCCOCc1nc(C(F)(F)F)ccc1C(=O)C1=C(O)C2CCC(C2)C1=O (centres unmarked) [A840-B52] | 3 | 2 | 1 | 3 | 4 | 3 | 2 | 3 | 2 | 2 | 1 | 2 | 2 | 1 |
| CCCOCCOCc1nc(C(F)(F)F)ccc1C(=O)C1=C(O)C2CCC(C2)C1=O (centres unmarked) [A841-B52] | 3 | 1 | 1 | 4 | 4 | 3 | 2 | 3 | 1 | 1 | 1 | 2 | 1 | 1 |
